# In ChEMBL document CHEMBL1681651, “A broad spectrum anticancer nucleoside with selective toxicity against human colon cells in vitro” (2011):
# Experiments:
# Assay type in all cases: functional
# MDA-MB-231 = test: Growth inhibition of human MDA-MB-231 cells assessed as cell growth at 1 uM after 48 hrs by SRB assay; conditions: MDA-MB-231, 48 h, read-out: Activity
# KM12 [1] = test: Growth inhibition of human KM12 cells assessed as cell growth at 10 uM after 48 hrs by SRB assay; conditions: KM12, 48 h, read-out: Activity
# HCT-116 = test: Growth inhibition of human HCT116 cells after 48 hrs by […] growth inhibition assay; conditions: HCT-116, 48 h
# TK-10 [2] = test: Growth inhibition of human TK10 cells assessed as cell growth at 100 uM after 48 hrs by SRB assay; conditions: TK-10, 48 h, read-out: Activity
# SF-295 = test: Growth inhibition of human SF295 cells assessed as cell growth at 0.1 uM after 48 hrs by SRB assay; conditions: SF-295, 48 h, read-out: Activity
# BT-549 [3] = test: Growth inhibition of human BT549 cells assessed as cell growth at 10 uM after 48 hrs by SRB assay; conditions: BT-549, 48 h, read-out: Activity
# NCI-H522 [4] = test: Growth inhibition of human NCI-H522 cells assessed as cell growth at 1 uM after 48 hrs by SRB assay; conditions: NCI-H522, 48 h, read-out: Activity
# COLO 205 = test: Growth inhibition of human COLO205 cells assessed as cell growth at 1 uM after 48 hrs by SRB assay; conditions: COLO 205, 48 h, read-out: Activity
# SK-MEL-2 = test: Growth inhibition of human SK-MEL-2 cells assessed as cell growth at 10 uM after 48 hrs by SRB assay; conditions: SK-MEL-2, 48 h, read-out: Activity
# NCI-H522 [5] = test: Growth inhibition of human NCI-H522 cells assessed as cell growth at 0.1 uM after 48 hrs by SRB assay; conditions: NCI-H522, 48 h, read-out: Activity
# KM12 [6] = test: Growth inhibition of human KM12 cells after 48 hrs by […] growth inhibition assay; conditions: KM12, 48 h
# SNB-19 = test: Growth inhibition of human SNB19 cells after 48 hrs by […] growth inhibition assay; conditions: SNB-19, 48 h
# BT-549 [7] = test: Growth inhibition of human BT549 cells assessed as cell growth at 1 uM after 48 hrs by SRB assay; conditions: BT-549, 48 h, read-out: Activity
# HT-29 = test: Growth inhibition of human HT-29 cells assessed as cell growth at 10 uM after 48 hrs by SRB assay; conditions: HT-29, 48 h, read-out: Activity
# TK-10 [8] = test: Growth inhibition of human TK10 cells assessed as cell growth at 0.1 uM after 48 hrs by SRB assay; conditions: TK-10, 48 h, read-out: Activity
# HCT-15 = test: Growth inhibition of human HCT15 cells after 48 hrs by […] growth inhibition assay; conditions: HCT-15, 48 h
# 786-0 [9] = test: Growth inhibition of human 786-0 cells assessed as cell growth at 1 uM after 48 hrs by SRB assay; conditions: 786-0, 48 h, read-out: Activity
# LOX IMVI = test: Growth inhibition of human LOXIMVI cells assessed as cell growth at 1 mM after 48 hrs by SRB assay; conditions: read-out: Activity
# NCI-H226 = test: Growth inhibition of human NCI-H226 cells assessed as cell growth at 1 mM after 48 hrs by SRB assay; conditions: NCI-H226, 48 h, read-out: Activity
# OVCAR-4 = test: Growth inhibition of human OVCAR4 cells assessed as cell growth at 10 uM after 48 hrs by SRB assay; conditions: OVCAR-4, 48 h, read-out: Activity
# A498 = test: Growth inhibition of human A498 cells after 48 hrs by […] growth inhibition assay; conditions: A498, 48 h
# ACHN = test: Growth inhibition of human ACHN cells assessed as cell growth at 1 uM after 48 hrs by SRB assay; conditions: read-out: Activity
# A549 = test: Growth inhibition of human A549 cells assessed as cell growth at 1 uM after 48 hrs by SRB assay; conditions: A549, 48 h, read-out: Activity
# 786-0 [10] = test: Growth inhibition of human 786-0 cells assessed as cell growth at 100 uM after 48 hrs by SRB assay; conditions: 786-0, 48 h, read-out: Activity
# U-251 = test: Growth inhibition of human U251 cells assessed as cell growth at 1 mM after 48 hrs by SRB assay; conditions: U-251, 48 h, read-out: Activity
# Malme-3M = test: Growth inhibition of human MALME-3M cells assessed as cell growth at 100 uM after 48 hrs by SRB assay; conditions: read-out: Activity
# UACC-257 = test: Growth inhibition of human UACC257 cells after 48 hrs by […] growth inhibition assay; conditions: UACC-257, 48 h
# NCI-H23 = test: Growth inhibition of human NCI-H23 cells assessed as cell growth at 10 uM after 48 hrs by SRB assay; conditions: NCI-H23, 48 h, read-out: Activity
# IGROV-1 = test: Growth inhibition of human IGROV1 cells assessed as cell growth at 100 uM after 48 hrs by SRB assay; conditions: IGROV-1, 48 h, read-out: Activity
# HCC 2998 = test: Growth inhibition of human HCC2998 cells assessed as cell growth at 100 uM after 48 hrs by SRB assay; conditions: HCC 2998, 48 h, read-out: Activity
# T47D = test: Growth inhibition of human T47D cells after 48 hrs by […] growth inhibition assay
# SW-620 = test: Growth inhibition of human SW620 cells assessed as cell growth at 10 uM after 48 hrs by SRB assay; conditions: SW-620, 48 h, read-out: Activity
# [11] = read-out: LC50 (the source's name)
# [12] = read-out: pLC50 (the source's name) (converted)
compound,measurement,setting,value
CCOC(=O)C[C@H]1[C@@H](O[Si](C)(C)C(C)(C)C)[C@H](n2cnc3c(NC(=O)Nc4ccccc4)ncnc32)O[C@@H]1CNC(=O)NC,growth at 1 µM,MDA-MB-231,103%
same,growth at 10 µM,KM12 [1],105%
same,GI50,HCT-116; read-out: GI50,3.2 µM
same,CC50,HCT-116; [11],45.6 µM
same,TGI,HCT-116; read-out: TGI,16.1 µM
same,GI50,HCT-116; read-out: pGI50 (converted),3.24 µM
same,CC50,HCT-116; [12],45.7 µM
same,TGI,HCT-116; read-out: pTGI (converted),16.2 µM
same,growth at 100 µM,TK-10 [2],59%
same,growth at 0.1 µM,SF-295,91%
same,growth at 10 µM,BT-549 [3],110%
same,growth at 1 µM,NCI-H522 [4],85%
same,growth at 1 µM,COLO 205,97%
same,growth at 10 µM,SK-MEL-2,99%
same,growth at 0.1 µM,NCI-H522 [5],89%
same,GI50,KM12 [6]; read-out: GI50,3.95 µM
same,CC50,KM12 [6]; [11],> 100 µM
same,TGI,KM12 [6]; read-out: TGI,20.9 µM
same,GI50,KM12 [6]; read-out: pGI50 (converted),3.98 µM
same,CC50,KM12 [6]; [12],> 100 µM
same,TGI,KM12 [6]; read-out: pTGI (converted),20.9 µM
same,GI50,SNB-19; read-out: GI50,29 µM
same,CC50,SNB-19; [11],> 100 µM
same,TGI,SNB-19; read-out: TGI,> 100 µM
same,GI50,SNB-19; read-out: pGI50 (converted),28.8 µM
same,CC50,SNB-19; [12],> 100 µM
same,TGI,SNB-19; read-out: pTGI,> 100 µM
same,growth at 1 µM,BT-549 [7],109%
same,growth at 10 µM,HT-29,104%
same,growth at 0.1 µM,TK-10 [8],98%
same,GI50,HCT-15; read-out: GI50,8.5 µM
same,CC50,HCT-15; [11],> 100 µM
same,TGI,HCT-15; read-out: TGI,> 100 µM
same,GI50,HCT-15; read-out: pGI50 (converted),8.51 µM
same,CC50,HCT-15; [12],> 100 µM
same,TGI,HCT-15; read-out: pTGI,> 100 µM
same,growth at 1 µM,786-0 [9],83%
same,growth at 1000 µM,LOX IMVI,4%
same,growth at 1000 µM,NCI-H226,55%
same,growth at 10 µM,OVCAR-4,95%
same,GI50,A498; read-out: GI50,3.34 µM
same,CC50,A498; [11],> 100 µM
same,TGI,A498; read-out: TGI,17.1 µM
same,GI50,A498; read-out: pGI50 (converted),3.31 µM
same,CC50,A498; [12],> 100 µM
same,TGI,A498; read-out: pTGI (converted),17 µM
same,growth at 1 µM,ACHN,97%
same,growth at 1 µM,A549,103%
same,growth at 100 µM,786-0 [10],-34%
same,growth at 1000 µM,U-251,-61%
same,growth at 100 µM,Malme-3M,50%
same,GI50,UACC-257; read-out: GI50,5.68 µM
same,CC50,UACC-257; [11],> 100 µM
same,TGI,UACC-257; read-out: TGI,> 100 µM
same,GI50,UACC-257; read-out: pGI50 (converted),5.62 µM
same,CC50,UACC-257; [12],> 100 µM
same,TGI,UACC-257; read-out: pTGI (converted),> 100 µM
same,growth at 10 µM,NCI-H23,100%
same,growth at 100 µM,IGROV-1,20%
same,growth at 100 µM,HCC 2998,69%
same,GI50,T47D; read-out: GI50,2.55 µM
same,CC50,T47D; [11],> 100 µM
same,TGI,T47D; read-out: TGI,> 100 µM
same,GI50,T47D; read-out: pGI50 (converted),2.57 µM
same,CC50,T47D; [12],> 100 µM
same,TGI,T47D; read-out: pTGI (converted),> 100 µM
same,growth at 10 µM,SW-620,97%
CNC(=O)NC[C@H]1O[C@@H](n2cnc3c(NC(=O)Nc4ccccc4)ncnc32)[C@H](O[Si](C)(C)C(C)(C)C)[C@@H]1CC(=O)N(C)OC,growth at 1 µM,MDA-MB-231,104%
same,growth at 10 µM,KM12 [1],106%
same,GI50,HCT-116; read-out: GI50,4.2 µM
same,CC50,HCT-116; [11],> 100 µM
same,TGI,HCT-116; read-out: TGI,> 100 µM
same,GI50,HCT-116; read-out: pGI50 (converted),4.17 µM
same,CC50,HCT-116; [12],> 100 µM
same,TGI,HCT-116; read-out: pTGI (converted),> 100 µM
same,growth at 100 µM,TK-10 [2],65%
same,growth at 0.1 µM,SF-295,93%
same,growth at 10 µM,BT-549 [3],96%
same,growth at 1 µM,NCI-H522 [4],87%
same,growth at 1 µM,COLO 205,93%
same,growth at 10 µM,SK-MEL-2,92%
same,growth at 0.1 µM,NCI-H522 [5],90%
same,GI50,KM12 [6]; read-out: GI50,23.9 µM
same,CC50,KM12 [6]; [11],> 100 µM
same,TGI,KM12 [6]; read-out: TGI,> 100 µM
same,GI50,KM12 [6]; read-out: pGI50 (converted),24 µM
same,CC50,KM12 [6]; [12],> 100 µM
same,TGI,KM12 [6]; read-out: pTGI (converted),> 100 µM
same,GI50,SNB-19; read-out: GI50,> 100 µM
same,CC50,SNB-19; [11],> 100 µM
same,TGI,SNB-19; read-out: TGI,> 100 µM
same,GI50,SNB-19; read-out: pGI50 (converted),> 100 µM
same,CC50,SNB-19; [12],> 100 µM
same,TGI,SNB-19; read-out: pTGI,> 100 µM
same,growth at 1 µM,BT-549 [7],98%
same,growth at 10 µM,HT-29,100%
same,growth at 0.1 µM,TK-10 [8],99%
same,GI50,HCT-15; read-out: GI50,6.47 µM
same,CC50,HCT-15; [11],> 100 µM
same,TGI,HCT-15; read-out: TGI,> 100 µM
same,GI50,HCT-15; read-out: pGI50 (converted),6.46 µM
same,CC50,HCT-15; [12],> 100 µM
same,TGI,HCT-15; read-out: pTGI,> 100 µM
same,growth at 1 µM,786-0 [9],92%
same,growth at 1000 µM,LOX IMVI,35%
same,growth at 1000 µM,NCI-H226,40%
same,growth at 10 µM,OVCAR-4,96%
same,GI50,A498; read-out: GI50,3.87 µM
same,CC50,A498; [11],> 100 µM
same,TGI,A498; read-out: TGI,40.3 µM
same,GI50,A498; read-out: pGI50 (converted),3.89 µM
same,CC50,A498; [12],> 100 µM
same,TGI,A498; read-out: pTGI (converted),40.7 µM
same,growth at 1 µM,ACHN,102%
same,growth at 1 µM,A549,100%
same,growth at 100 µM,786-0 [10],48%
same,growth at 1000 µM,U-251,25%
same,growth at 100 µM,Malme-3M,52%
same,GI50,UACC-257; read-out: GI50,22.6 µM
same,CC50,UACC-257; [11],> 100 µM
same,TGI,UACC-257; read-out: TGI,> 100 µM
same,GI50,UACC-257; read-out: pGI50 (converted),22.4 µM
same,CC50,UACC-257; [12],> 100 µM
same,TGI,UACC-257; read-out: pTGI (converted),> 100 µM
same,growth at 10 µM,NCI-H23,99%
same,growth at 100 µM,IGROV-1,26%
same,growth at 100 µM,HCC 2998,66%
same,GI50,T47D; read-out: GI50,13.9 µM
same,CC50,T47D; [11],> 100 µM
same,TGI,T47D; read-out: TGI,> 100 µM
same,GI50,T47D; read-out: pGI50 (converted),13.8 µM
same,CC50,T47D; [12],> 100 µM
same,TGI,T47D; read-out: pTGI (converted),> 100 µM
same,growth at 10 µM,SW-620,93%
